The subject of test [1] is interleukin-1β (IL-1β) release, THP-1 cells. As to the kind of experiment: Reduction of LPS and β-amyloid-induced increased release of interleukin-1β in THP-1 cells (ELISA). It counts as cell-based. The following applies: Homo sapiens, 100 μM test compound with LPS and Aβ(25-35), 48 hours, read-out: reduction of β-amyloid-induced increased release of interleukin-1β compared to the controls. As for the experimental part: (§1) THP-1 cells, a human monocyte cell line from American Type Culture Collection, were grown in RPMI-1640 medium plus 10% fetal bovine serum (FBS, not heat-inactivated) in T-flasks. The medium was changed every two days by spinning down (800 rpm, 5 minutes) the cells, replating cells and adding fresh medium. Alternatively, the cultures were maintained by the addition of fresh medium. The cultures were maintained at a cell concentration ranging from between 1×10^5 and 1×10^6 cells/mL. Because sera may contain unknown factors which can affect macrophage/monocyte IL-1 production, the FBS was reduced to 5% for 24 hours. The FBS was further reduced to 2% over two days prior to starting each experiment. The cells were collected by centrifugation and resuspended into 2% FBS. Cell numbers were calculated and cells were plated on 24-well plates (3×10^5 cells/0.6 mL/well). Cells were then treated with LPS (0.5 μg/ml or 0-10 μg/ml for LPS dose-responseexperiments) alone or in combination with Aβ peptides (5 μM or 0.05-5 μM for dose-response experiments). When determining the effect of the test compounds on IL-1β, IL-6 and TNFα release, 100 μM of the test compound was added with the LPS and Aβ(25-35) and this mixture was incubated for 48 hours prior to performing ELISA.
(§2) IL-1β, IL-6 and TNFα secretions into medium by LPS-stimulated THP-1 cells, in the presence or absence of amyloid peptides and a test compound, were assayed with a commercially available ELISA kit (R & D Systems). Briefly, a microtiter plate coated with a murine monoclonal antibody to human IL-1β, IL-6, or TNFα was supplied by the manufacturer. Standards and samples were pipetted into the wells and any IL-1β, IL-6 or TNFα present was bound by the immobilized antibody. Unbound proteins were washed away and a horseradish peroxidase-linked polyclonal antibody specific for IL-1β, IL-6 or TNFα was added to the wells to "sandwich" the IL-1β, IL-6 and TNFα bound in the initial step. After washing to remove any unbound antibody-enzyme reagent, a substrate solution (1:1 hydrogen peroxide:tetramethylbenzidine, v/v) was added to the wells and color developed in proportion to the amount of IL-1β, IL-6 or TNFα bound in the initial step. Color development was stopped with 2 N sulfuric acid and the optical density of the standard and the test samples was measured at 450 nm. The amounts of IL-1β, IL-6 or TNFα present in the samples were calculated based upon a standard curve. Assays were run in quadruplicate wells.
In general terms: An ELISA detects its analyte on a solid surface through an enzyme-linked reagent.

Test [2] relates to interleukin-6 (IL-6) release, THP-1 cells. Kind of test: Reduction of LPS and β-amyloid-induced increased release of interleukin-6 in THP-1 cells (ELISA). It counts as cell-based. The following applies: Homo sapiens, 100 μM test compound with LPS and Aβ(25-35), 48 hours, read-out: reduction of β-amyloid-induced increased release of interleukin-6 compared to the controls. How it is done:
as §1, §2

Test [3] concerns tumor necrosis factor-α (TNFα) release, THP-1 cells. Kind of test: Reduction of LPS and β-amyloid-induced increased release of tumor necrosis factor-α in THP-1 cells (ELISA). It counts as cell-based. The following applies: Homo sapiens, 100 μM test compound with LPS and Aβ(25-35), 48 hours, read-out: reduction of β-amyloid-induced increased release of tumor necrosis factor-α compared to the controls. How it is done: as §1, §2

Test [4] deals with rat embryonic hippocampal primary neuronal/astrocytic cultures. Kind of test: Protection against Aβ(25-35)-induced neuronal cell loss. It counts as cell-based, Sprague Dawley rat. The following applies: Neuron, 100 μM test compound, 30 μM Aβ(25-35), 96 hours treatment, morphologically viable neurons counted, read-out: reduction of Aβ(25-35)-induced neuronal cell loss compared to the controls. How it is done: Sprague Dawley rat hippocampus of 18-day-gestation embryos was excised and then dissociated by trituration to prepare primary neuronal/astrocytic cultures. Cells (3×10^5) were plated on 35 mm poly-D-lysine-coated plates containing Eagle's minimum essential medium supplemented with 10% fetal bovine serum. After 3-5 hours, the original medium was removed and replaced with 1 mL of fresh medium. Cultures were maintained at 37° C. in a 5% CO2 /95% air, humidified incubator.
To the cells (7 DIV) was added 30 μM of Aβ(25-35) dissolved in dH2 O (stored at -20° C.) and 100 μM of the test compound in 1% methylcellulose. Controls were also conducted without the test compound. The percentage of morphologically viable neurons was determined counting the number of viable neurons after 96 hours treatment compared to the number of neurons before treatment in the same premarked culture regions (three regions/culture). The number of wells was n=6 per treatment condition.

A further test deals with T1, synthetic Aβ(1-40) (Homo sapiens, UniProt P05067).
T1 construct: particularly the aggregated fibrils of synthetic Aβ(1-40)
As to the kind of experiment: Inhibition of Aβ(1-40) beta-pleated sheet formation (thioflavin T fluorescence). It counts as biochemical. The following applies: compound 10 μM; ThT 3 μM in PBS pH 6.0; Aβ(1-40) 3 μg; fluorescence increase over 12-24 hours; read-out: percent inhibition of Aβ(1-40) beta-pleated sheet formation compared to the controls. How it is done: Thioflavin T (ThT) is known to rapidly associate with beta-pleated sheets, particularly the aggregated fibrils of synthetic Aβ(1-40). This association gives rise to a new excitation maximum at 440 nm and to enhanced emission at 490 nm.
The experiments were performed using a CytoFluor II fluorescence plate reader having the following parameters: […]
Into each well was aliquoted 95 μl of ThT (3 μM) prepared in PBS (pH 6.0), 2 μL of the compound to be tested (10 μM) prepared with 0.05% of methylcellulose in PBS (pH 6.0), and 3 μL of Aβ(1-40) (3 μg) prepared with dH2 O. The fluorescence measurement began when the Aβ(1-40) was added and continued for a total of 12-24 hours. The percent inhibition of beta-pleated sheet formation was calculated from the relative fluorescence unit increase over the 12-24 hours between aggregation in the presence and in the absence of the test compounds.

For test [5], the system named is rats injected with Aβ(25-35). Kind of test: Reduction of locomotor impairment due to Aβ-peptide injected into substantia nigra. It counts as in vivo, Sprague-Dawley rat. As to conditions: oral 1-10 mg/kg one hour before and three hours post 20 μg Aβ(25-35) injection; tested one week after treatment. How it is done: Male Sprague-Dawley rats (250-400 g) were given injections of 20 μg of Aβ(25-35) into their substantia nigra. Prior to the injection, the rats were fasted overnight and then each received an oral treatment of the test compound (1-10 mg/kg) dissolved in aqueous 1% methyl cellulose or the vehicle alone, one hour before and three hours post the Aβ-peptide stereotaxic injection. One week after treatment, the rats were dosed s.c. with 0.5 mg/kg apomorphine (dissolved in 0.1% vitamin C in isotonic saline) and the circling reflex was monitored using a Rotorat computerized behavioral monitoring apparatus for the time period between 15 and 30 minutes of being placed in the arena. Impairment of the animals due to Aβ-peptide was determined by measuring the number of rotations over the 15 minute period.

For test [6], the system named is MRL/MpJfas^1pr mutant mice. As to the kind of experiment: Reduction of cognitive deficits in autoimmune mice (T-maze). It counts as in vivo, mouse. As to conditions: Fas^1pr mice; 100 mg/kg p.o. daily from 2 to 4 months of age (9 weeks); versus untreated mutant mice. The text has this: MRL/MpJfas^1pr ("mutant mice" or "Fas^1pr ") strains of mice have been described as useful models of Lupus due to their autoimmune lymphoproliferatory pathology. In particular, the mutant mice show a cognitive deficit at approximately four months of age, which is not observed at two months of age. See, for example, Forster et al., 1988, Behav. Neural Biology, 49, 139-151.
In the experiment, wild-type ("++") and Fas^1pr strains of mice were received at 4 to 8 weeks of age (n=10-11). The compound of Example 1 above or 1% methylcellulose (100 mg/kg p.o.) was administered daily from 2 months of age to 4 months of age (a total of 9 weeks). After reaching 4 months of age, the mice were tested for cognitive ability in a T-maze. This behavioral task measures discrimination, active avoidance and acquisition skills (acquisition is the number of avoidances in the first 5 test trials).

SMILES strings stand for the structures. Where a name gives a salt, the structure may show the parent alone.

T1 sequence (P05067 672-711): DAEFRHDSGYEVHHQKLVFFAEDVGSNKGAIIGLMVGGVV

Take `CCCCNC(=O)C=Cc1ccc(S(=O)(=O)O)o1` [Example 5, 5-[2-(N-n-Butylcarbamoyl)eth-1-enyl]-furan-2-sulfonic Acid Sodium Salt]: the inhibition at 100 µM in test [1] was not below 20%; in test [2], not below 20%; in test [3], not below 20%; in test [4], not below 60%.

With `CCCCNC(=O)CCc1ccc(S(=O)(=O)O)o1` [Example 6, 5-[2-(N-n-Butylcarbamoyl)ethyl]-furan-2-sulfonic Acid Sodium Salt], the inhibition at 100 µM in test [1], in test [2] and in test [3] was not below 20% in each case. Besides, at synthetic Aβ(1-40), the inhibition at 10 µM is not below 10%.

On to `CCCCNC(=O)c1ccc(S(=O)(=O)[O-])o1.[Na+]` [Example 1, N-n-Butyl-5-carbamoylfuran-2-sulfonic Acid Sodium Salt], for which the “locomotor impairment (apomorphine-induced rotations over 15 minute period) compared to Aβ(25-35)-treated controls” value in test [5] is on record as “reduced the locomotor impairment”. For the same compound, the inhibition at 100 µM in test [1] was not below 20%; in test [2] it was not below 20%; in test [3], not below 20%; in test [4], not below 60%. Also, the “acquisition in T-maze (FIG. 1)” value in test [6] is “acquired avoidance skills earlier than untreated mutant mice”. The “avoidance in T-maze (FIG. 2)” value in test [6] is “reduced avoidance values”. Besides, at synthetic Aβ(1-40), the inhibition at 10 µM is not below 10%.

For the compound `CC(C)NC(=O)c1ccc(S(=O)(=O)O)o1` [Example 2, N-Isopropyl-5-carbamoylfuran-2-sulfonic Acid Sodium Salt], the inhibition at 100 µM in test [1] is not below 20%; in test [2] it was not below 20%; in test [3], not below 20%; in test [4], not below 60%. Besides, on synthetic Aβ(1-40), the inhibition at 10 µM was not below 10%.

The values above are taken from patent publication US5994396A, “Furansulfonic acid derivatives and pharmaceutical compositions containing the same” (priority 1998, dated 1999).
